Measured values: US20060194260A1, “Screening assays for cannabinoid-ligand-type modulators of gpr55” (priority 2003, published 2006)

Legend:
GPR55A [1] = target: T1, GPR55A (Homo sapiens, UniProt Q9Y2T6); experiment: GTPγS binding assay on membranes of GPR55A-transfected HEK293s cells; type: biochemical; details: for EC50: NA = not active; for activation of GPR55A (GTPγS): concentration response
T1 construct: expressed in transfected cells; host or cells: HEK293s (transient, pIRESneo2 vector), membranes
Experimental: Membranes with or without 20 μM ligand were assayed for their stimulatory or inhibitory activity on GTPγS binding. As a negative control, cell membranes were prepared from empty vector-transfected cells, and as a positive control, cell membranes were prepared from CB1 transfected cells.
Receptor activity was determined using a GTPγS binding assay as follows: 10 μg of membranes diluted in 200 μl of 100 mM NaCl, 5 mM MgCl2, 1 mM EDTA, 50 mM HEPES (pH 7.4), 1 mM DTT, 0.1% BSA and 100 μM GDP. To this was added the required concentration of test compound and […] ^35S-GTPγS in the presence or absence of an EC80 concentration of agonist (HU210). […] Samples were then transferred on to GF/B filters using a cell harvester and washed with wash buffer (50 mM Tris (pH 7.4), 5 mM MgCl2, 50 mM NaCl). Filters were then covered with scintilant and counted for the amount of ^35S-GTPγS retained by the filter. To determine the level of non-specific binding control reactions were performed in the presence of 10 μM GTPγS.
Functional activity of ligands either in the presence or absence of agonists was determined as follows: Non-specific binding was subtracted from all values determined. The effect of compounds at various concentrations was plotted according to the equation y=A+((B−A)/1+((C/x)?ˆD))) and EC50 or IC50 estimated. Results
To further define the agonist activities of cannabinoid ligands EC50 determinations were made. […] Refer to FIGS. 5A-5D for the results. […] Table 1. Activity of ligands at GPR55A (Antagonist data were generated in the presence of an EC80 concentration of HU210.)

GPR55 = target: T2, GPR55 (Homo sapiens, UniProt Q9Y2T6); experiment: Radioligand binding, membranes of GPR55-transfected HEK293S cells; details: for specific binding of radioligand: 1.6 nM radioligand
T2 construct: FLAG; expressed in transfected cells; host or cells: HEK293S (transient), membranes
Experimental: (§1) To test whether GPR55 and/or GPR55Δ encoded a receptor that had the potential to perform as a cannabinoid receptor we transiently transfected cDNAs encoding FLAG-tagged forms of the receptors into HEK293S cells using lipofectamine. The cells were harvested 48 hours later and membranes prepared.
(§2) Membrane preparations were prepared by re-suspending receptor expressing cells in ice cold TE buffer (10 mM Tris-HCL 0.1 mM EDTA pH7.5) and leaving on ice for 5 minutes before pelleting the insoluble material by centrifugation at 1000 g. This process was repeated twice before re-suspending the pellet in an appropriate volume of TE and storing at −80° C.
(§3) Test compounds were added followed by 1.6 nM radioligand (3H—SR-141716A, ^3H-CP55940 or ^3H-WIN-55, 212-2) to an assay mixture containing membranes (10 μg protein) in 5.0 mM Tris, 5.0 mM MgCl2×6H2O (pH 7.4) supplemented with 0.05% BSA. The reaction was allowed to proceed at 30° C. for 90 min and then terminated by rapid filtration using GF/B filters (pre-soaked in 0.05% PEI) and washed with 50 mM Tris (pH 7.4), MgCl2×6H2O. Filters were then covered with scintillant and counted for the amount of radioligand retained. Non-specific binding was determined in the presence of 200 nM SR-141716A, CP55940 or WIN-55, 212-2.

GPR55A [2] = target: T1, GPR55A; experiment: Radioligand binding, membranes of GPR55A-transfected HEK293S cells; details: for specific binding of radioligand: 1.6 nM radioligand
Experimental: as §1, §2, §3

[3] = Radioligand binding, membranes of vector-transfected cells (negative control); details: vector-transfected cell membranes
Experimental: as §3

[4] = GTPγS binding, GPR55A membranes

T1 sequence (Q9Y2T6 whole entry): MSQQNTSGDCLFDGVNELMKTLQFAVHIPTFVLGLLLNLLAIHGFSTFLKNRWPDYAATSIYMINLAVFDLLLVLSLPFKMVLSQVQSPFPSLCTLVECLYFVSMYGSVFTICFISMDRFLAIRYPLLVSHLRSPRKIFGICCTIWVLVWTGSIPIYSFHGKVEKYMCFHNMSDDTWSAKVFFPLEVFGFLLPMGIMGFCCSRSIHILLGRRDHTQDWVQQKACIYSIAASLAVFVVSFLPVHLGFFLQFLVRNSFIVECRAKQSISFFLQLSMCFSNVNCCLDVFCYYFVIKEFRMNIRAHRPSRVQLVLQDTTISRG
T2 sequence (Q9Y2T6 whole entry L132S/R133G/S134P/R136G/K137R/I138S/F139L/I141S/C142A): as the sequence (Q9Y2T6 whole entry) above, with L132S, R133G, S134P, R136G, K137R, I138S, F139L, I141S, C142A counted along it

| SMILES | EC50 (GPR55A [1]; [4]) | activation of GPR55A (GTPγS) (GPR55A [1]) | other results |
| --- | --- | --- | --- |
| CCCCC/C=C\C/C=C\C/C=C\C/C=C\CCCC(=O)OC(CO)CO [2-AG, 2-aracodonylglycerol] | 0.0035 ± 0.0024 µM | concentration-dependent activation | – |
| C=C(C)[C@@H]1CCC(C)=C[C@H]1c1c(O)cc(O)cc1CCCCC [Abnormal cannabidiol] | 2.78 ± 0.098 µM | – | – |
| CCCCC/C=C\C/C=C\C/C=C\C/C=C\CCCC(=O)NCCO [Anandamide] | 0.0184 ± 0.0041 µM | concentration-dependent activation | – |
| CCCCCCC(C)(C)c1ccc([C@@H]2C[C@H](O)CC[C@H]2CCCO)c(O)c1 [CP55940] | 0.0071 ± 0.0013 µM | – | concentration dependent activity after pertussis toxin or cholera toxin treatment (GPR55A [1]; GPR55a in HEK293s membranes, treated with either toxin vs untreated): remains unaltered |
| C=C(C)[C@@H]1CCC(C)=C[C@H]1c1c(O)cc(CCCCC)cc1O [Cannabidiol] | – | – | IC50 (GPR55A [1]; GTPγS binding, GPR55A membranes, antagonist data in the presence of an EC80 concentration of HU210, read-out: IC50 measurement): 0.354 ± 0.063 µM |
| CCCCCCC(C)(C)c1cc(O)c2c(c1)OC(C)(C)[C@@H]1CC=C(CO)C[C@@H]21 [Hu210] | 0.033 ± 0.012 µM | – | – |
| CCCn1c(C)c(C(=O)c2cccc3ccccc23)c2ccccc21 [JWH-015] | 0.00475 ± 0.00025 µM | – | – |
| CCCCC/C=C\C/C=C\C/C=C\C/C=C\CCCCOC(CO)CO [Noladin Ether] | 0.0115 ± 0.0005 µM | concentration-dependent activation | – |
| CCCCCCCC/C=C\CCCCCCCC(=O)NCCO [Oleylethanolamide] | 0.424 ± 0.203 µM | – | – |
| CCCCCCCCCCCCCCCC(=O)NCCO [Palmitoylethanolamide] | 0.0032 ± 0.0013 µM | concentration-dependent activation | – |
| Cc1c(C(=O)NN2CCCCC2)nn(-c2ccc(Cl)cc2Cl)c1-c1ccc(Cl)cc1 [SR141716] | – | – | displacement of [^3H]-SR141716 (competition-binding curve) (GPR55): nanomolar affinity; displacement of [^3H]-SR141716 (competition-binding curve) (GPR55A [2]): nanomolar affinity; specific binding, [^3H]-SR141716 competition [3]: no specific binding |
| CCCCC/C=C\C/C=C\C/C=C\C/C=C\CCCC(=O)OCCN [Virodhamine] | 0.0104 ± 0.0014 µM | – | – |
| CCCCCCC(C)(C)c1ccc([C@@H]2C[C@H](O)CC[C@H]2CCCO)c(O)c1 [[^3H]-CP55940] | – | – | specific binding of radioligand (GPR55): significant binding; specific binding of radioligand (GPR55A [2]): significant binding |
| Cc1c(C(=O)NN2CCCCC2)nn(-c2ccc(Cl)cc2Cl)c1-c1ccc(Cl)cc1 [[^3H]-SR141716] | – | – | specific binding of radioligand (GPR55): significant binding; specific binding of radioligand (GPR55A [2]): significant binding |
| Cc1c(C(=O)c2cccc3ccccc23)c2cccc3c2n1C(CN1CCOCC1)CO3 (stereo not drawn) [[^3H]-WIN55-212] | – | – | specific binding of radioligand (GPR55): little or no binding; specific binding of radioligand (GPR55A [2]): little or no binding |
| CCCCCc1cc(O)c2c(c1)OC(C)(C)[C@@H]1CCC(C)=C[C@@H]21 [Δ9-THC, Δ9-tetrahydrocannbinol] | 0.0089 ± 0.0011 µM | concentration-dependent activation | – |
